Consider two compounds from patent US20140120167A1, “MULTIFUNCTIONAL CHEMO- AND MECHANICAL THERAPEUTICS” (WILLIAM MARSH RICE UNIVERSITY, priority 2012, published 2014).

The test system of series [1] is HN31 squamous carcinoma cells. Put plainly: Short-term complex viability (RRV, Trypan Blue exclusion and cell concentration) 72 h after treatment. Particulars: for increase of cancer cell viability with plain (non-conjugated) nanocarriers compared with C225-conjugated carriers: GNP-C225 + PNB; for drug concentration required, drugs administered alone, to bring complex viability of cancer cells to the levels of PNB-enhanced release: no PNB. The series is classed as cell-based, human. Here is the method: Short term response in vitro to co-localized administration of drug nanocarriers, GNPs and laser pulses. We used EGFR-positive HN31 (cancer) cells and EGFR-negative NOM9 (normal) cells. […] After incubation, GNPs and drug carriers were washed off. […] PNB lifetime was obtained for individual cells. The short-term viability was evaluated 72 hours after the treatment of samples as a complex viability parameter RRV that included the viability level V1 (measured in % with Trypan Blue exclusion test) and the cell concentration C: RRV=C/C0*V1,*100% , where C0 is the cell concentration in the intact sample.
The ability of the PNB mechanism to overcome drug resistance and to reduce non-specific toxicity was evaluated with two common drugs and carrier types. Water-soluble doxorubicin was encapsulated into PEG-coated 90 nm Doxil liposomes that were conjugated with anti-EGFR antibody, C225 (L-Dox-C225). Non-soluble paclitaxel was loaded into 14 nm micelles conjugated to the same antibody (M-Ptx-C225). Each type of drug-loaded nanocarrier was administered separately with gold NP-C225 conjugates. Cancer (HN31) and normal (NOM9) cells were incubated identically with NP-C225 and nanocarriers. Drug doses were reduced to the level that provided relatively high viability of both cell types when treated with nanocarriers alone (without PNBs).
After incubation, NPs and nanocarriers were washed off, the cells were exposed to a single laser pulse (70 ps, 532 nm, 40 mJ cm^−2) and the PNB lifetime was obtained for individual cells. […] The cell concentration and viability were measured at 72 hours after the PNB generation as the complex viability parameter that was normalized by that in intact cells (FIG. 8). […] (FIGS. 8a and 8b).
Short-term therapeutic response to quadrapeutics and other treatments in vitro. […] The radiation treatment was administered within 60 min after PNB generation, i.e. when the intracellular concentration of the released drug was close to the maximal.

The test system of series [2] is HN31 cells. As to the kind of experiment: Clonogenic test (surviving fraction), cancer cells. The following applies: Dox 2 μg mL^−1 or Ptx 33 ng mL^−1 + GNP 2.4×10^10 mL^−1 + laser 45 mJ cm^−2 + X-rays 4 Gy 6 hours after PNB. The series is classed as cell-based, human.
In series [3] the test system is NOM9 cells. Put plainly: Clonogenic test (surviving fraction), normal cells. The following applies: quadrapeutics, X-rays 4 Gy 6 hours after PNB.
Description: Evaluation of the long-term therapeutic response with a clonogenic test. We used EGFR-positive HN31 cells and EGFR-negative NOM9 cells. […] Thus the cells were exposed only to the internalized drug during the follow-up generation of PNBs. One to six hours afterwards, a single dose of X-rays (0-25 Gy) was applied.
To evaluate their colony-forming ability, the cells were trypsinized and replaced in 100 mm dishes in a free medium immediately after the treatment of samples. After 10 days of cultivation, the cells were stained with 0.5% crystal violet in absolute ethanol, and colonies with more than 50 cells were counted under a microscope. Plating efficiency was defined as the percentage of cells seeded that grew into colonies under a specific culture condition of a given cell line. […] All experiments were performed three times.

Take `CC(=O)O[C@H]1C(=O)[C@@]2(C)[C@H]([C@H](OC(=O)c3ccccc3)[C@]3(O)C[C@H](OC(=O)[C@H](O)[C@@H](NC(=O)c4ccccc4)c4ccccc4)C(C)=C1C3(C)C)[C@]1(OC(C)=O)CO[C@@H]1C[C@@H]2O` [paclitaxel]: in series [1], the “fold higher concentration required for drug alone vs PNB-enhanced release” value amounted to 15 fold; the “increase of cancer cell viability with plain (non-conjugated) nanocarriers compared with C225-conjugated carriers” value was “several-fold”; the “drug concentration required, drugs administered alone, to bring complex viability of cancer cells to the levels of PNB-enhanced release” value came to 1 µg/mL. Also, the “cancer cell growth (clonogenicity) after quadrapeutics, mode D+PNB+XR6” value in series [2] is listed as “strong therapeutic effect”. The “viability of identically treated normal cells” value in series [3] is reported as “close to that of intact cells”.

Turning to `COc1cccc2c1C(=O)c1c(O)c3c(c(O)c1C2=O)C[C@@](O)(C(=O)CO)C[C@@H]3O[C@H]1C[C@H](N)[C@H](O)[C@H](C)O1` [doxorubicin], in series [1], the “fold higher concentration required for drug alone vs PNB-enhanced release” value came out at 18 fold; the “increase of cancer cell viability with plain (non-conjugated) nanocarriers compared with C225-conjugated carriers” value is given as “several-fold”; the “drug concentration required, drugs administered alone, to bring complex viability of cancer cells to the levels of PNB-enhanced release” value is 85 µg/mL.
